Entries after “also recorded” stand apart in the source; their conditions may differ.
How the values were obtained:
[1] = test system: phospholipid-bound AA and DHA; test: Essential fatty acid profile in plasma, biweekly treatment for 4 weeks (8 treatments); format: in vivo, mice
Method: Fenretinide Diet Supplementation. Examples 2 to 6: fenretinide (Sigma-Aldrich, Oakville, ON) powder was resuspended in 95% ethanol and subsequently incorporated in the Peptamen liquid diet. It was protected from light and kept at 4° C. before being given to the mice (5 mg/kg per day per mouse). Mock-treated diets were prepared similarly by adding ethanol to the Peptamen diet but omitting the fenretinide supplementation. The diet was given every morning for 28 consecutive days with specific monitoring of the quantity consumed by the mice in each cage. Examples 7 to 12: fenretinide powder was kindly provided by Dr. Robert Smith (NIH; Bethesda, Md., USA). Fenretinide was resuspended in 95% ethanol to make a 2 μg/μL concentration. Approximately 40 μL of this preparation was incorporated into the Peptamen liquid diet (5 mg/kg per day per mouse). The prepared food containing fenretinide was then stored in the dark at 4° C. for no more than 3 hours prior to being administered to the mice. To ensure that the entire drug dose was consumed, the mice were given 10 mL of fenretinide-treated Peptamen, which represents ⅔ of the daily mouse food consumption, in the late afternoon. The remaining 5 mL of Peptamen (without fenretinide) was given the following morning. Mice were treated twice a week for 4 weeks. During the treatment period each mouse was kept in a separate cage (including WT mice) and was monitored to ensure that the entire amount of Peptamen containing the fenretinide or with out was consumed. The diet for the mock-treated control group was prepared and administered similarly to that described above, by adding the same volume of ethanol to the Peptamen diet but omitting the fenretinide supplementation.
Fatty Acid Analysis. Minced tissues isolated from mice were immersed in 1 mM BHA in chloroform and methanol (2:1 vol). For plasma samples (mouse and human), 100 μL of plasma was added to 1 mL of BHA. Lipids were then extracted from all samples according to standard methods (Folch, et al. (1957) J. Biol. Chem. 226:497-509). Identification of phospholipids was carried out by thin-layer chromatography extraction (Van Handel & Zilversmit (1957) J. Lab. Clin. Med. 50:152-157). Also, fractionated lipids were dried and resuspended in heptane:methanol:sulfuric acid (5:1:1) for free fatty acid extraction. Diazomethane was used to esterify the fatty acids released and the esters were identified by GC/MS (Hewlett Packard 5880A, WCOT capillary column (Supelco-10, 35 m×0.5 mm, 1 μm thick)) using commercial standards (Sigma-Aldrich).

P. aeruginosa = test: Bacterial load (CFU) in the lungs of infected mice; format: in vivo
Method: P. aeruginosa Inoculum Preparation. In order to establish a model of prolonged lung infection, bacteria-impregnated agar beads were freshly prepared the day before each experiment according to established methods (Guilbault, et al. (2005) Laboratory Animals 39:336-352), and stored at 4° C. overnight. Briefly, the bacteria (P. aeruginosa strain 508) from an overnight culture were grown for approximately 3 hours in a shaking incubator at 37° C., until it reached a mid-log phase. The log-phase bacteria were concentrated and resuspended in 5 mL of Dulbecco's phosphate-buffered saline (PBS; INVITROGEN™, Mississauga, ON). A 5 mL aliquot of the concentrated bacterial broth was added to 52° C. 1.5% trypticase soy agar (DIFCO®, Detroit, Mich.) (agarose beads free of bacteria were prepared using PBS instead of a bacterial suspension). This mixture was quickly added to 52° C. heavy mineral oil and stirred rapidly, first at room temperature for 6 minutes, followed by ice cooling with continuous stirring for 10 minutes. The oil-agar mixture was centrifuged to sediment the beads. The beads were washed with PBS and their size was verified microscopically and only those preparations containing beads predominantly 100-250 micrometers in diameter were used as inoculum. Inoculum was prepared by diluting the beads suspension to 1×10^6 CFUs per 50 μl (injection volume).
Mouse Lung Infection. Mice were anaesthetized with a combination of ketamine (7.5 mg/mL) and xylazine (0.5 mg/mL) administered intraperitoneally at a dose of 20 mL/kg of body weight. Once the mouse was successfully anaesthetized, the animal was installed under binoculars (Microscope M650, Wild Leitz, Willowdale, ON) in the vertical position and held on a restraining board by holding the animal by its upper incisor teeth (Guilbault, et al. (2005) supra). […] Mice were monitored 3 times daily; the maximum weight loss allowed was 15%. […]
Lung Homogenates. […] The number of CFU per lung was counted after overnight incubation at 37° C. […]

[2] = test system: cytokines/chemokines (IL-17, IL-1β, IL-6, IL-7, IL-9, IL-10, IL-15, G-CSF, MIP-1a, KC); test: Cytokine/chemokine levels in lung homogenates of infected mice; format: in vivo
Method: Lung Homogenates. Lungs from infected mice were harvested and homogenized for 60 seconds at high speed (homogenizer PT10135; Brinkmann Instruments Co., Mississauga, ON) in 4 mL of sterile PBS (INVITROGEN™). Serial, 10-fold dilutions of lung homogenates were plated on petri dishes containing TSA. The number of CFU per lung was counted after overnight incubation at 37° C. For cytokine measurements, lung homogenates were centrifuged at 1500×g at 4° C. for 10 minutes; the supernatants were then removed, aliquoted in new tubes and stored at −20° C. until assayed for cytokine concentrations.
Cytokine/chemokine measurements. The levels of 10 cytokines/chemokines (IL-1β, IL-6, IL-7, IL-9, IL-10, IL-15, IL-17, G-CSF (granulocyte colony-stimulating factor), MIP-1a (macrophage inflammatory protein 1 alpha), and N51/KC (cytokine-induced neutrophil chemoattractant), were assessed in lung homogenates prepared from infected animals with the Mouse Cytokine/Chemokine LINCOplex kit (Linco Research, Inc, St-Charles, Mo.) using Luminex™ technology and assayed with the Luminex100LS™ system by Linco Research, Inc. The cytokine detection limit for this assay was 3.2 pg/ml.

In the case of `CC1=C(/C=C/C(C)=C/C=C/C(C)=C/C(=O)Nc2ccc(O)cc2)C(C)(C)CCC1` [fenretinide, all-trans-N-(4-hydroxyphenyl) retinamide], the “Concentration of phospholipid-bound AA in plasma” value ([1]; Cftr-KO mice, 8 treatments, p<0.05) is reported as “brought down significantly; also recorded: decreased significantly”, the “Phospholipid-bound DHA, increase vs control Cftr-KO” value ([1]; Cftr-KO mice, plasma, 8 treatments) is reported as 2 fold and the “DHA:AA ratio, increase vs untreated Cftr-KO” value ([1]; Cftr-KO mice, plasma, 8 treatments, p<0.05) is reported as 2 fold. For the same compound, the “DHA bound in phospholipids, increase” value ([1]; WT and Cftr-KO mice, after 4 weeks of biweekly treatments (FIG. 14B legend)) was 2 fold, the “Decrease of median number of bacteria vs untreated Cftr-KO” value (P. aeruginosa; Cftr-KO mice, day 3 post-infection) was “about 10 fold” and the “Median bacterial load in the lungs” value (P. aeruginosa; fenretinide-treated Cftr-KO mice, day 3 post-infection, p=0.004 vs untreated) was 3.8×10^4 CFU/lung. For the same compound, the “Effect on median number of bacteria in the lungs vs untreated infected controls” value (P. aeruginosa; wild-type mice, p=0.240) was “no significant effect”, the “Levels of IL-1β, IL-9, KC and MIP-1a vs mock-treated” value ([2]; Cftr-KO mice, not statistically significant) was “trend towards decreased levels” and the “IL-17 level, decrease vs Cftr-KO controls” value ([2]; Cftr-KO mice, p=0.049) was 2.9 fold. For the same compound, the “All cytokines tested, fenretinide-treated vs untreated” value ([2]; WT mice) was “no difference” and the “IL-6, G-CSF, IL-15, IL-10 and IL-7 levels” value ([2]; time point tested) was “not affected”.

Reference: patent US8680153B2, “Method for correcting a lipid imbalance in a subject” (The Royal Institution for the Advancement of …, priority 2005, dated 2014)
